Type in all cases: in vivo, SD rats
Test [1] has as its system rats with cerebral ischemic reperfusion injury. Put plainly: Relative infarct volume (TTC, imageJ), cerebral ischemic reperfusion MCAO model. The method, then:
(§1) Rats were intraperitoneally injected with 10% chloral hydrate 350 mg/kg after anesthesia and opened up at the center of the neck in accordance with the Zea Longa modified method. The right common carotid artery was separated, and the right external carotid artery branches was ligated. A small opening was made at the distal end of the external carotid artery, and a previously prepared thread was inserted through the common carotid artery and the external carotid artery bifurcation into the internal carotid artery, till the anterior end of the middle cerebral artery, with an immersed depth of 18 to 19 mm. The thread was then secured, and the wound was sutured layer by layer. After the operation, the rats were placed in a clean incubator to wake up. […] The sham operation group, the ischemic reperfusion group, and the Example groups were prepared strictly according to the requirements of the cerebral ischemic reperfusion model, while in the sham operation group the thread was put only into the external carotid artery. The animals were allowed to eat and drink freely after waking up. After 2 h, the thread was pulled out to achieve reperfusion. The sham operation group, the ischemic reperfusion group, and the Example groups were administered intravenously the aqueous solution of the biphenyl derivatives in PEG400 at 40 mg/kg (40 mg/kg means that 40 mg of the test compound per kg of the body weight of rats) 30 min before reperfusion and 12 h after reperfusion, respectively. The sham operation group and the ischemic reperfusion group were injected with the same amount of blank PEG400 aqueous solution at the same time point.
(§2) 24 hours after reperfusion, 8 rats in each group were sacrificed by decapitation, the brain was removed, rinsed with PBS (pH 7.4) at −20° i for 20 min, evenly sliced (with a thickness of 2 mm), stained in a 2% TTC solution at 37°% in the dark for 30 min, fixed in 10% formalin for 24 h, and photographs were taken to analyze the infarct volume. A mixture of femoral arterial and venous blood was drawn from another 8 rats in each group under anesthesia, placed in a low temperature centrifuge at 4° C., centrifuged at 3500 r/min for 20 min, and the supernatant was stored in a refrigerator at −20° C. ready for SOD and MDA detection. After the blood was drawn, a perfusion needle was insert through the apex to the ascending aorta, and saline at 4° C. was rapid infused until the effluent became clear, followed by 4% paraformaldehyde phosphate buffer perfusion for fixation; the brain was removed by craniotomy, and brain tissues 2 mm in front of and behind the optic chiasma were taken and fixed, dehydrated, rendered transparent, impregnated in wax, and embedded. Brain continuous coronary tissue pathological sections were consecutively cut for later use. The remaining 8 rats in each group were sacrificed, brains were removed, the ischemic brain hemispheres were immediately taken on an ice tray, and 10% brain tissue homogenate was prepared for the detection of IL-1β and TNF-α.
The infarct area in each brain section was analyzed and quantified by the imageJ image software, and the ratio of cerebral infarction volume in the overall brain volume was calculated.

Test [2] deals with SOD. As to the kind of experiment: SOD determination, cerebral ischemic reperfusion MCAO model. The method, then: as §1, §2
(§3) SOD and MDA were determined strictly in accordance with instructions of the kit.

Test [3] relates to IL-1β. Put plainly: Determination of IL-1β in brain tissue homogenate, cerebral ischemic reperfusion MCAO model. How it is done:
as §1, §2
(§4) Brain tissue homogenate was hypothermally centrifuged at 3000 rpm for 15 min, the supernatant was taken, and IL-1β and TNF-α were determined in strict accordance with instructions of the kits.

The test system of test [4] is TNF-α. Put plainly: Determination of TNF-α in brain tissue homogenate, cerebral ischemic reperfusion MCAO model. How it is done:
as §1, §2, §4

Test [5] relates to SOD. As to the kind of experiment: SOD determination, permanent cerebral ischemia model. How it is done: as §1, with “the permanent cerebral ischemia model” for “the ischemic reperfusion”, “up.” for “up. After 2 h, the thread was pulled out to achieve reperfusion.”, “before insertion of thread” for “before reperfusion”, “after embolism,” for “after reperfusion,”
as §2, with “the embolism,” for “reperfusion,”, “−20°i” for “−20° i”
as §3

For test [6], the system named is IL-1β. As to the kind of experiment: Determination of IL-1β in brain tissue homogenate, permanent cerebral ischemia model. How it is done: as §1, with “the permanent cerebral ischemia model” for “the ischemic reperfusion”, “up.” for “up. After 2 h, the thread was pulled out to achieve reperfusion.”, “before insertion of thread” for “before reperfusion”, “after embolism,” for “after reperfusion,”
as §2, with “the embolism,” for “reperfusion,”, “−20°i” for “−20° i”
as §4

Test [7] has as its system TNF-α. Put plainly: Determination of TNF-α in brain tissue homogenate, permanent cerebral ischemia model. The method, then: as §1, with “the permanent cerebral ischemia model” for “the ischemic reperfusion”, “up.” for “up. After 2 h, the thread was pulled out to achieve reperfusion.”, “before insertion of thread” for “before reperfusion”, “after embolism,” for “after reperfusion,”
as §2, with “the embolism,” for “reperfusion,”, “−20°i” for “−20° i”
as §4

Where [8] appears, read: ischemic reperfusion rat model, edaravone 3 mg/kg.
Where [9] appears, read: permanent cerebral ischemia model rats, edaravone 3 mg/kg.
Setting [10] is: ischemic reperfusion MCAO rats, 40 mg/kg intravenously, 10% brain tissue homogenate, 24 h after reperfusion, 40 mg/kg.
[11] abbreviates: permanent cerebral ischemia model rats, 40 mg/kg intravenously, 10% brain tissue homogenate, 24 h after the embolism, 40 mg/kg.
Where [12] appears, read: ischemic reperfusion MCAO rats, 40 mg/kg intravenously 30 min before and 12 h after reperfusion, 24 h after reperfusion.
Setting [13] is: ischemic reperfusion MCAO rats, 40 mg/kg intravenously 30 min before and 12 h after reperfusion, serum, 24 h after reperfusion.
Where [14] appears, read: ischemic reperfusion MCAO rats, 40 mg/kg intravenously, 10% brain tissue homogenate, 24 h after reperfusion.
Where [15] appears, read: permanent cerebral ischemia model rats, 40 mg/kg intravenously, serum, 24 h after the embolism.
Setting [16] is: permanent cerebral ischemia model rats, 40 mg/kg intravenously, 10% brain tissue homogenate, 24 h after the embolism.

Turning to “3,3′,5,5′-tetraisopropylbiphenyl-4,4′-bis(oxymethylene phosphate) [Example 3 group]”, the “Relative Brain infarction volume (%)” value in test [1] (rat, in vivo, iv, 40 mg/kg) stood at 25.41 ± 3.59 %. The “SOD ACTIVITY (U/mL)” value in test [2] (rat, in vivo, iv, 40 mg/kg) came to 93.15 ± 3.05 U/mL; in test [5] (rat, in vivo, iv, 40 mg/kg), 93.61 ± 2.13 U/mL. Moreover, the “IL-1β content” value in test [3] (rat, in vivo, iv, 40 mg/kg) came out at 0.66 ± 0.05 ng/mL; in test [6] (rat, in vivo, iv, 40 mg/kg), 0.67 ± 0.08 ng/mL. For the same compound, the “TNF-α content” value in test [4] (rat, in vivo, iv, 40 mg/kg) was 4.26 ± 0.54 ng/mL; in test [7] (rat, in vivo, iv, 40 mg/kg) it was 4.45 ± 0.91 ng/mL.

For `CC1=NN(c2ccccc2)C(=O)C1` [Edaravone injection, edaravone, reference compound], the “Relative Brain infarction volume (%)” value in test [1] (setting [8]) was 29.31 ± 3.95 %. The figures for the “SOD ACTIVITY (U/mL)” value in test [2] (setting [8]) and in test [5] (setting [9]) were 88.16 ± 3.99 U/mL and 90.62 ± 3.81 U/mL, respectively. Moreover, the entries for the “IL-1β content” value in test [3] (setting [8]) and in test [6] (setting [9]) were 0.75 ± 0.05 ng/mL and 0.76 ± 0.04 ng/mL, respectively. For the same compound, the “TNF-α content” value in test [4] (setting [8]) is reported as 5.14 ± 0.44 ng/mL; in test [7] (setting [9]) it was 5.53 ± 0.54 ng/mL.

Take `CC(=O)Oc1c(C(C)C)cc(-c2cc(C(C)C)c(O)c(C(C)C)c2)cc1C(C)C` [Example 1 group, 4′-hydroxy-3,3′,5,5′-tetraisopropylbiphenyl-4-acetate]: the “Relative Brain infarction volume (%)” value in test [1] (ischemic reperfusion MCAO rats, 40 mg/kg intravenously 30 min before and 12 h after reperfusion, 24 h after reperfusion, 40 mg/kg) stood at 18.71 ± 4.69 %. Moreover, the “SOD ACTIVITY (U/mL)” value in test [2] (ischemic reperfusion MCAO rats, 40 mg/kg intravenously 30 min before and 12 h after reperfusion, serum, 24 h after reperfusion, 40 mg/kg) is listed as 96.78 ± 2.94 U/mL; in test [5] (permanent cerebral ischemia model rats, 40 mg/kg intravenously, serum, 24 h after the embolism, 40 mg/kg), 97.36 ± 4.51 U/mL. Further, the “IL-1β content” value in test [3] (setting [10]) turned out to be 0.63 ± 0.12 ng/mL; in test [6] (setting [11]), 0.64 ± 0.09 ng/mL. The “TNF-α content” value in test [4] (setting [10]) was found to be 4.11 ± 0.72 ng/mL; in test [7] (setting [11]), 4.25 ± 0.66 ng/mL.

Regarding `CC(=O)Oc1c(C(C)C)cc(-c2cc(C(C)C)c(OC(C)=O)c(C(C)C)c2)cc1C(C)C` [Example 2 group, 3,3′,5,5′-tetraisopropylbiphenyl-4′-diacetate], the “Relative Brain infarction volume (%)” value in test [1] (setting [12]) is 23.22 ± 3.12 %. The “SOD ACTIVITY (U/mL)” value was 94.46 ± 2.19 U/mL in test [2] (setting [13]) and 93.28 ± 3.49 U/mL in test [5] (setting [15]). The figures for the “IL-1β content” value in test [3] (setting [14]) and in test [6] (setting [16]) were 0.79 ± 0.11 ng/mL and 0.78 ± 0.12 ng/mL, respectively. For the same compound, the “TNF-α content” value in test [4] (setting [14]) was 5.03 ± 0.59 ng/mL; in test [7] (setting [16]), 5.15 ± 0.88 ng/mL.

Take `CC(C)c1cc(-c2cc(C(C)C)c(OC(=O)CCC(=O)O)c(C(C)C)c2)cc(C(C)C)c1O` [Example 5 group, [4-(4′-hydroxy-3,3′,5,5′-tetraisopropylbiphenyl)oxy]-4-carbonyl butyric acid]: the “Relative Brain infarction volume (%)” value in test [1] (setting [12]) came to 23.55 ± 5.67 %. Also, the “SOD ACTIVITY (U/mL)” value is 95.01 ± 3.22 U/mL in test [2] (setting [13]) and 95.31 ± 4.11 U/mL in test [5] (setting [15]). The “IL-1β content” value in test [3] (setting [14]) stood at 0.74 ± 0.09 ng/mL; in test [6] (setting [16]), 0.72 ± 0.11 ng/mL. The “TNF-α content” value in test [4] (setting [14]) was determined as 5.01 ± 0.59 ng/mL; in test [7] (setting [16]), 5.23 ± 0.48 ng/mL.

Consider `CCCc1cc(-c2cc(CCC)c(O)c(C(C)C)c2)cc(C(C)C)c1O` [Example 6 group, 4,4′-dihydroxy-3,3′-diisopropyl-5,5′-dipropylbiphenyl], for which, in test [1] (setting [12]), the “Relative Brain infarction volume (%)” value stood at 19.35 ± 4.02 %. Also, the “SOD ACTIVITY (U/mL)” value in test [2] (setting [13]) stood at 96.89 ± 3.49 U/mL; in test [5] (setting [15]) it was 97.21 ± 4.36 U/mL. Further, the “IL-1β content” value in test [3] (setting [14]) is reported as 0.64 ± 0.03 ng/mL; in test [6] (setting [16]) it was 0.55 ± 0.05 ng/mL. The “TNF-α content” value was determined as 4.16 ± 0.44 ng/mL in test [4] (setting [14]) and 4.99 ± 0.53 ng/mL in test [7] (setting [16]).

On to `CCCc1cc(-c2cc(CCC)c(O)c(CCC)c2)cc(CCC)c1O` [Example 7 group, 4,4′-dihydroxy-3,3′,5,5′-tetrapropylbiphenyl], for which the “Relative Brain infarction volume (%)” value in test [1] (setting [12]) came out at 19.29 ± 3.54 %. For the same compound, the “SOD ACTIVITY (U/mL)” value is 94.51 ± 2.19 U/mL in test [2] (setting [13]) and 98.28 ± 3.18 U/mL in test [5] (setting [15]). Further, the “IL-1β content” value was 0.63 ± 0.08 ng/mL in test [3] (setting [14]) and 0.57 ± 0.08 ng/mL in test [6] (setting [16]). Also, the “TNF-α content” value in test [4] (setting [14]) is reported as 4.32 ± 0.61 ng/mL; in test [7] (setting [16]), 4.26 ± 0.40 ng/mL.

With `CC(C)c1cc(-c2cc(C(C)C)c(C(=O)O)c(C(C)C)c2)cc(C(C)C)c1O` [Example 8 group, 4′-hydroxy-3,3′,5,5′-tetraisopropylbiphenyl-4-carboxylic acid], in test [1] (setting [12]), the “Relative Brain infarction volume (%)” value is 25.83 ± 2.38 %. For the same compound, the “SOD ACTIVITY (U/mL)” value in test [2] (setting [13]) is reported as 96.09 ± 3.33 U/mL; in test [5] (setting [15]), 96.90 ± 3.69 U/mL. Besides, the entries for the “IL-1β content” value in test [3] (setting [14]) and in test [6] (setting [16]) were 0.64 ± 0.14 ng/mL and 0.65 ± 0.08 ng/mL, respectively. Moreover, the “TNF-α content” value is listed as 4.35 ± 0.46 ng/mL in test [4] (setting [14]) and 4.39 ± 0.73 ng/mL in test [7] (setting [16]).

Take `CC(C)c1cc(-c2cc(C(C)C)c(Cl)c(C(C)C)c2)cc(C(C)C)c1O` [Example 9 group, 4-chloro-4′-hydroxy-3,3′,5,5′-tetraisopropylbiphenyl]: the “Relative Brain infarction volume (%)” value in test [1] (rat, in vivo, iv, 40 mg/kg) was 24.74 ± 6.13 %. For the same compound, the “SOD ACTIVITY (U/mL)” value in test [2] (rat, in vivo, iv, 40 mg/kg) worked out at 92.26 ± 2.96 U/mL; in test [5] (rat, in vivo, iv, 40 mg/kg), 93.62 ± 2.73 U/mL. Moreover, the “IL-1β content” value in test [3] (rat, in vivo, iv, 40 mg/kg) was 0.63 ± 0.07 ng/mL; in test [6] (rat, in vivo, iv, 40 mg/kg), 0.62 ± 0.12 ng/mL. Besides, the “TNF-α content” value in test [4] (rat, in vivo, iv, 40 mg/kg) was 5.02 ± 0.39 ng/mL; in test [7] (rat, in vivo, iv, 40 mg/kg), 5.17 ± 0.40 ng/mL.
